Measured values reported in PMC8815882, “Screening the pandemic response box identified benzimidazole carbamates, Olorofim and ravuconazole as promising drug candidates for the treatment of eumycetoma” (PLoS Neglected Tropical Diseases, 2022).
Converted amounts (≈) assume the structure as drawn. Like-named read-outs stand apart in the source and are kept apart here.

What was measured:
[1] = test system: M. mycetomatis genome strain MM55; assay: CLSI M38-A2 based in vitro susceptibility screening (XTT or resazurin), growth at fixed concentration; assay type: cell-based, Madurella mycetomatis; settings: Madurella mycetomatis; for Percent fungal survival at 100 µM: replicate 2, M. mycetomatis MM55, read-out: Percentage survival at 100um, 100 uM A (second replicate column)
M. mycetomatis MM55 = assay: IC50 determination, 2-fold dilution series 16 to 0.03125 μM; assay type: cell-based, Madurella mycetomatis; settings: for IC50 / IC90: Madurella mycetomatis
[2] = test system: ten different M. mycetomatis isolates; assay: MIC / MIC50 determination (XTT) in ten M. mycetomatis isolates; assay type: cell-based, Madurella mycetomatis; settings: Madurella mycetomatis
[3] = test system: M. mycetomatis isolate MM55; assay: M. mycetomatis grain infection model in G. mellonella larvae, survival; assay type: in vivo, Galleria mellonella; set-up: In vivo efficacy, Larvae survival %: concentration or dose not given beside the values
[4] = mean of three, M. mycetomatis MM55, read-out: Percentage survival at 25um, 25 uM mean
[5] = replicate A, M. mycetomatis MM55, read-out: Percentage survival at 25um, 25 um A
[6] = replicate B, M. mycetomatis MM55, read-out: Percentage survival at 25um, 25 uM B
[7] = replicate C, M. mycetomatis MM55, read-out: Percentage survival at 25um, 25 uM C
[8] = mean of three, M. mycetomatis MM55, read-out: Percentage survival at 100um, 100 uM mean
[9] = replicate 1, M. mycetomatis MM55, read-out: Percentage survival at 100um, 100 uM A (first replicate column)
[10] = replicate 3, M. mycetomatis MM55, read-out: Percentage survival at 100um, 100 uM A (third replicate column)
[11] = MM55, Table 2, M. mycetomatis MM55, read-out: IC50
[12] = MM55, mean of replicates, read-out: IC50 mean
[13] = MM55, mean of replicates, read-out: IC90 mean
[14] = MM55, replicate 1, read-out: IC50 1 um
[15] = MM55, replicate 1, read-out: IC90 1 um
[16] = MM55, replicate 2, read-out: IC50 2 um
[17] = MM55, replicate 2, read-out: IC90 2 um
[18] = MM55, replicate 3, read-out: IC50 3 um
[19] = MM55, replicate 3, read-out: IC90 3 um
[20] = median MIC over ten M. mycetomatis isolates, no asterisk, read-out: MIC50
[21] = over the tested M. mycetomatis isolates, read-out: MIC50 mean
[22] = isolate CBS247.48, read-out: MIC CBS247.48
[23] = isolate MM14, read-out: MIC MM14
[24] = isolate MM45, read-out: MIC MM45
[25] = isolate MM55, read-out: MIC MM55
[26] = isolate ParijsAl1, read-out: MIC ParijsAl1
[27] = isolate Peru72012, read-out: MIC Peru72012
[28] = G. mellonella larvae infected with M. mycetomatis
[29] = mean, read-out: Percentage survival at 25um, 25 uM mean
[30] = replicate A, read-out: Percentage survival at 25um, 25 um A
[31] = replicate B, read-out: Percentage survival at 25um, 25 uM B
[32] = replicate C, read-out: Percentage survival at 25um, 25 uM C
[33] = mean, read-out: Percentage survival at 100um, 100 uM mean
[34] = replicate (first column), read-out: Percentage survival at 100um, 100 uM A
[35] = replicate (second column), read-out: Percentage survival at 100um, 100 uM A
[36] = replicate (third column), read-out: Percentage survival at 100um, 100 uM A
[37] = MM55, replicate 1, read-out: IC50 1
[38] = MM55, replicate 1, read-out: IC90 1
[39] = MM55, replicate 2, read-out: IC50 2
[40] = MM55, replicate 2, read-out: IC90 2
[41] = MM55, replicate 3, read-out: IC50 3
[42] = MM55, replicate 3, read-out: IC90 3
[43] = over the isolates tested, read-out: MIC50 mean

IC50 (M. mycetomatis MM55; [11]) [nM]	MIC50 [2, 20] [µM]	MIC [2, 22] [µM]	MIC [2, 23] [µM]	MIC [2, 24] [µM]	MIC [2, 25] [µM]	MIC ([2]; isolate P1, read-out: MIC P1) [µM]	MIC [2, 26] [µM]	MIC [2, 27] [µM]	MIC ([2]; isolate So1, read-out: MIC So1) [µM]	MIC ([2]; isolate i1, read-out: MIC i1) [µM]	MIC ([2]; isolate i11, read-out: MIC i11) [µM]	SMILES	activity at 25 µM [1, 4] [%]	activity at 25 µM [1, 5] [%]	activity at 25 µM [1, 6] [%]	activity at 25 µM [1, 7] [%]	activity at 100 µM [1, 8] [%]	activity at 100 µM [1, 9] [%]	Percent fungal survival at 100 µM [1] [%]	activity at 100 µM [1, 10] [%]	further results
5720	4 (≈ 1.27 µg/mL)	4 (≈ 1.27 µg/mL)	4 (≈ 1.27 µg/mL)	4 (≈ 1.27 µg/mL)	2 (≈ 0.635 µg/mL)	> 16	0.25 (≈ 0.0794 µg/mL)	16 (≈ 5.08 µg/mL)	2 (≈ 0.635 µg/mL)	2 (≈ 0.635 µg/mL)	16 (≈ 5.08 µg/mL)	CCC(C)(C)c1ccc(CC(C)CN2C[C@@H](C)O[C@@H](C)C2)cc1 (some centres unmarked) [MMV1634358, Amorolfine, reference compound]	0.888	-0.194	0.287	2.57	8.96	0.903	2.35	23.6	Drug static or cidal (M. mycetomatis MM55; M. mycetomatis): Static; IC50 (M. mycetomatis MM55; [12]): 5720 nM; IC90 (M. mycetomatis MM55; [13]): 10700 nM; IC50 (M. mycetomatis MM55; [14]): 2450 nM; IC90 (M. mycetomatis MM55; [15]): 4650 nM; IC50 (M. mycetomatis MM55; [16]): 11700 nM; IC90 (M. mycetomatis MM55; [17]): 22100 nM; IC50 (M. mycetomatis MM55; [18]): 3000 nM; IC90 (M. mycetomatis MM55; [19]): 5400 nM; MIC50 [2, 21]: 4 µM (≈ 1.27 µg/mL); In vivo efficacy, Enhanced survival compared to control? [3, 28]: no; In vivo efficacy, Larvae survival % [3, 28]: 11.1%
2660	1 (≈ 0.527 µg/mL)	16 (≈ 8.44 µg/mL)	1 (≈ 0.527 µg/mL)	1 (≈ 0.527 µg/mL)	4 (≈ 2.11 µg/mL)	2 (≈ 1.05 µg/mL)	2 (≈ 1.05 µg/mL)	4 (≈ 2.11 µg/mL)	1 (≈ 0.527 µg/mL)	0.25 (≈ 0.132 µg/mL)	8 (≈ 4.22 µg/mL)	O[C@@](Cn1cnnn1)(c1ccc(F)cc1F)C(F)(F)c1ccc(-c2ccc(OCC(F)(F)F)cc2)cn1 [MMV1634386, Oteseconazole, reference compound]	–	–	–	–	–	–	–	–	activity at 25 µM [1, 29]: -1.26%; activity at 25 µM [1, 30]: -1.75%; activity at 25 µM [1, 31]: -2.55%; activity at 25 µM [1, 32]: 0.501%; activity at 100 µM [1, 33]: 7.07%; activity at 100 µM [1, 34]: -1.99%; activity at 100 µM [1, 35]: 9.06%; activity at 100 µM [1, 36]: 14.2%; Drug static or cidal (M. mycetomatis MM55): Cidal; IC50 (M. mycetomatis MM55; MM55, mean, read-out: IC50 mean): 2660 nM; IC90 (M. mycetomatis MM55; MM55, read-out: IC90 mean): 5170 nM; IC50 (M. mycetomatis MM55; [37]): 2150 nM; IC90 (M. mycetomatis MM55; [38]): 5000 nM; IC50 (M. mycetomatis MM55; [39]): 2780 nM; IC90 (M. mycetomatis MM55; [40]): 5000 nM; IC50 (M. mycetomatis MM55; [41]): 3060 nM; IC90 (M. mycetomatis MM55; [42]): 5500 nM; MIC50 [2, 43]: 1 µM (≈ 0.527 µg/mL); In vivo efficacy, Enhanced survival compared to control? ([3]; in vivo): no; In vivo efficacy, Larvae survival % ([3]; in vivo): 11.1%
2810	1 (≈ 0.378 µg/mL)	4 (≈ 1.51 µg/mL)	4 (≈ 1.51 µg/mL)	2 (≈ 0.755 µg/mL)	4 (≈ 1.51 µg/mL)	4 (≈ 1.51 µg/mL)	4 (≈ 1.51 µg/mL)	4 (≈ 1.51 µg/mL)	4 (≈ 1.51 µg/mL)	1 (≈ 0.378 µg/mL)	4 (≈ 1.51 µg/mL)	O=C(/C(=C/c1ccc(Cl)cc1Cl)n1ccnc1)c1ccc(Cl)cc1 [MMV1634491]	0.641	-1.32	0.287	2.96	7.66	-1.73	4.59	20.1	Drug static or cidal (M. mycetomatis MM55; M. mycetomatis): Static; IC50 (M. mycetomatis MM55; [12]): 2810 nM; IC90 (M. mycetomatis MM55; [13]): 4700 nM; IC50 (M. mycetomatis MM55; [14]): 2220 nM; IC90 (M. mycetomatis MM55; [15]): 4360 nM; IC50 (M. mycetomatis MM55; [16]): 2880 nM; IC90 (M. mycetomatis MM55; [17]): 4780 nM; IC50 (M. mycetomatis MM55; [18]): 3340 nM; IC90 (M. mycetomatis MM55; [19]): 4950 nM; MIC50 [2, 21]: 4 µM (≈ 1.51 µg/mL); In vivo efficacy, Enhanced survival compared to control? [3, 28]: no; In vivo efficacy, Larvae survival % [3, 28]: 8.9%
720	0.5 (≈ 0.165 µg/mL)	2 (≈ 0.658 µg/mL)	0.125 (≈ 0.0412 µg/mL)	4 (≈ 1.32 µg/mL)	0.5 (≈ 0.165 µg/mL)	1 (≈ 0.329 µg/mL)	0.125 (≈ 0.0412 µg/mL)	0.5 (≈ 0.165 µg/mL)	0.125 (≈ 0.0412 µg/mL)	0.0625 (≈ 0.0206 µg/mL)	1 (≈ 0.329 µg/mL)	Clc1cc(Cl)c2c(c1)CCc1ccccc1C2n1ccnc1 (centres unmarked) [MMV1634492, Eberconazole, reference compound]	–	–	–	–	–	–	–	–	activity at 25 µM [1, 29]: -1.12%; activity at 25 µM [1, 30]: -3.02%; activity at 25 µM [1, 31]: -4.98%; activity at 25 µM [1, 32]: 4.64%; activity at 100 µM [1, 33]: 3.3%; activity at 100 µM [1, 34]: -3.84%; activity at 100 µM [1, 35]: 6.56%; activity at 100 µM [1, 36]: 7.19%; Drug static or cidal (M. mycetomatis MM55): Cidal; IC90 (M. mycetomatis MM55; MM55, read-out: IC90 mean): 1290 nM; IC50 (M. mycetomatis MM55; [37]): 580 nM; IC90 (M. mycetomatis MM55; [38]): 1300 nM; IC50 (M. mycetomatis MM55; [39]): 780 nM; IC90 (M. mycetomatis MM55; [40]): 1210 nM; IC50 (M. mycetomatis MM55; [41]): 800 nM; IC90 (M. mycetomatis MM55; [42]): 1350 nM; MIC50 [2, 43]: 0.5 µM (≈ 0.165 µg/mL); Effect on larvae survival Day 4 (words) ([3]; 20 μM per larvae, vs infected control, day four): prolonged larvae survival; In vivo efficacy, Enhanced survival compared to control? ([3]; in vivo): no; In vivo efficacy, Larvae survival % ([3]; in vivo): 13.3%
